We go through three molecules from US10344330B2, “Glatiramer acetate response biomarker mRNA potency assay” (Mylan Inc., priority 2013, dated 2019).

For this assay, the system named is mIL-2 mRNA in primary LN cells. The assay is described as follows: mIL-2 mRNA by real-time PCR in ex vivo stimulated LN cells of immunized (SJL/J×BALB/C)F1 mice (Example I). Format: cell-based, mouse. As to the method:
For each of the three experiments summarized in Table 1, female (SJL/J×BALB/C) F1 hybrid (Jackson Laboratory) mice were immunized by footpad injection with either 250 μg GMA (Mylan Pharmaceuticals, Inc.) and CFA (Sigma Aldrich), or Mannitol and CFA (as a negative control). The GA solution was diluted to 5 mg/mL with Dulbecco's Phosphate-buffered saline. A dose solution was then prepared by mixing the diluted GA solution (5 mg/mL) and CFA (1:1) until well-emulsified. Each mouse received a total injection volume of 0.1 mL (250 μg GA). Animals were immunized on Day 0. Immunized animals were sacrificed via cervical dislocation on Day 10 following immunization. Lymph nodes in the axillary and popliteal regions were removed aseptically in a purifier clean bench, and transferred into a sterile petri dish containing about 5 mL of sterile RPMI 1640 medium. The LN were washed 3 times with −5 mL of RPMI medium, and the LN cells isolated by pressing the LN with a syringe plunger. The cell suspension was transferred to a sterile 50 mL conical tube, washed in about 40 mL of RPMI medium by centrifuging at about 200×g for 10 minutes at about 4° C., and re-suspended in RPMI 1640 medium for cell counting. The cell suspension was centrifuged at about 200×g for 10 minutes at about 4° C. and re-suspended in ice cold enriched DCCM-1 medium. The LN cells (2.5×10^6 cells/cm^2) were plated in the wells of a 48-well tissue culture plate and stimulated with GA or controls.
After incubation at about 37° C. in a humidified CO2 incubator for the indicated time, total RNA was isolated from the treated cells using the RNeasy Mini Kit (Qiagen, Cat. #74104). Cells were lysed in RNA lysis buffer, transferred to Qiagen spin columns, washed, and the RNA eluted with DEPC-treated water from the column. cDNA was synthesized from each RNA sample using the High Capacity cDNA Reverse Transcription Kit (Applied Biosystems, Cat. #4368814). The PCR reactions were carried out using TaqMan Universal PCR Master Mix (Applied Biosystems, Cat. #4304437) and specific primers/probe for the target cytokine and reference internal controls. Primers/probes for mouse cytokines IL-2 (Cat. #4331182; ID Mm00434256_m1), IL-4 (Cat. #4331182; ID Mm00445259_m1), IL-5 (Cat. #4331182; ID Mm00439646_m1), IFN-γ (Cat. #4331182; ID Mm01168134_m1), IL-10 (ID Mm00439614_m1), and TNF-α (Mm00443260_g1) were obtained from Life Technologies. Expression of cytokine mRNA was quantitatively analyzed using a Real-Time PCR system (7500, Applied Biosystems).
(DCCM1 from Beit Haemek Ltd.; Cat. No. 05 010 1A). There was no MBP treatment for the 2-hour groups. (MBP from Bachem; Cat No. H-1964.0001) For each evaluation time DCCM1 was studied and compared, i.e. 2 hours represents 2 hours with DCCM1, 4 hours=4 hours, etc., and served as representative control for each timepoint.
For Experiment 3, a 96-well plate format was used, and RNA isolation was carried out using an SV 96 Total RNA Isolation System (Promega). Immunization of Groups 3A and 4A are described in Table 1. […] Y-axis: linear mRNA fold-changes of mIL-2. X-axis: log Cop and GA (Mylan GMA) concentration values. The best fit for the data set was performed using the logarithmic model.
Group 1B animals were female (SJL/J×BALB/C) F1 hybrid (Jackson Laboratory) mice immunized by footpad injection with either 250 μg GA and CFA, or Mannitol and CFA (as a negative control). A dose solution was prepared by mixing a diluted GA solution (5 mg/mL) and CFA (1:1).
(In general: Quantitative PCR measures a nucleic acid by following its amplification.)

Where [1] appears, read: Experiment 1, GA-immunized (SJL/J×BALB/C)F1, 2 hour post stimulation, GA 10, ConA 2.5 μg/mL.
Setting [2] is: Experiment 1, GA-immunized (SJL/J×BALB/C)F1, 4 hour post stimulation, GA 10, MBP 10, ConA 2.5 μg/mL.
Where [3] appears, read: Experiment 1, GA-immunized (SJL/J×BALB/C)F1, 6 hour post stimulation, GA 10, MBP 10, ConA 2.5 μg/mL.
Setting [4] is: Experiment 1, GA-immunized (SJL/J×BALB/C)F1, 24 hour post stimulation, GA 10, MBP 10, ConA 2.5 μg/mL.
The mark [5] stands for this setting: Experiment 3, Group 3A (GA + CFA), stimulation 2.5 μg/mL, 6 hours.
Where [6] appears, read: Experiment 3, Group 4A controls, *Animals not immunized, MBP 10, ConA 2.5 μg/mL, 6 hours.
[7] abbreviates: Group 1B (GA + CFA), 4 hours post-stimulation, GA 10, MBP 10, ConA 2.5 μg/mL, reference 18S rRNA.
Setting [8] is: Group 1B (GA + CFA), 6 hours post-stimulation, GA 10, MBP 10, ConA 2.5 μg/mL, reference 18S rRNA.
The mark [9] stands for this setting: Group 2B (Mannitol + CFA), 4 hours post-stimulation, GA 10, MBP 10, ConA 2.5 μg/mL, reference 18S rRNA.
Where [10] appears, read: Group 2B (Mannitol + CFA), 6 hours post-stimulation, GA 10, MBP 10, ConA 2.5 μg/mL, reference 18S rRNA.
Setting [11] is: Experiment 3, Group 3A (GA + CFA), stimulation 10 μg/mL, 6 hours.

Where “and” joins values, the source holds several entries; their conditions need not be identical. Equal entries are not always repeated.

In the case of “Concanavalin A [ConA, reference compound]”, the “mIL-2 mRNA Level” value runs as follows: under setting [1], 183.4 fold change vs control; under setting [2], 131.5 fold change vs control; under setting [3], 105.0 fold change vs control; under setting [4], 16.2 fold change vs control; under setting [5], 111.0 fold change vs control; under setting [6], 91.4 fold change vs control. Also, the “mIL-2 mRNA Level” value is, setting by setting: under setting [7], 256.3 fold change vs control; under setting [8], 54.3 fold change vs control; under setting [9], 517.9 fold change vs control; under setting [10], 277.9 fold change vs control.

Turning to “L-glutamic acid polymer with L-alanine, L-lysine and L-tyrosine, acetate (salt) [GA]”, the “mIL-2 mRNA Level” value worked out at 5.3 fold change vs control under setting [1]; 12.2 fold change vs control under setting [2]; 20.8 fold change vs control under setting [3]; 3.6 fold change vs control under setting [4]; 9.7 fold change vs control (Experiment 3, Group 3A (GA + CFA), stimulation 1 μg/mL, 6 hours); 20.2 fold change vs control under setting [5]. In addition, the “mIL-2 mRNA Level” value reads like this: (Experiment 3, Group 3A (GA + CFA), stimulation 5 μg/mL, 6 hours) 22.6 fold change vs control; under setting [11], 26.1 fold change vs control; (Experiment 3, Group 3A (GA + CFA), stimulation 15 μg/mL, 6 hours) 27.3 fold change vs control; (Experiment 3, Group 3A (GA + CFA), stimulation 25 μg/mL, 6 hours) 34.7 fold change vs control; (Experiment 3, Group 4A (Mannitol + CFA), stimulation 5 μg/mL, 6 hours) 3.0 fold change vs control; (Experiment 3, Group 4A (Mannitol + CFA), stimulation 10 μg/mL, 6 hours) 1.6 fold change vs control. Further, the “mIL-2 mRNA Level” value is, setting by setting: (Experiment 3, Group 4A (Mannitol + CFA), stimulation 25 μg/mL, 6 hours) 1.7 fold change vs control and 1.5 fold change vs control; under setting [7], 16.7 fold change vs control; under setting [8], 10.2 fold change vs control; under setting [9], 1.8 fold change vs control; under setting [10], 1.4 fold change vs control. Moreover, the “mIL-2 mRNA level increase vs DCCM-1-stimulated control” value (Group 1B, 4 and 6 hours (text summary of Table 8)) is recorded as “at least 10 fold”.

B1: MBP: myelin basic protein, a negative control (protein, UniProt P02686 1-304, looked up)
Myelin basic protein: MGNHAGKRELNAEKASTNSETNRGESEKKRNLGELSRTTSEDNEVFGEADANQNNGTSSQDTAVTDSKRTADPKNAWQDAHPADPGSRPHLIRLFSRDAPGREDNTFKDRPSESDELQTIQEDSAATSESLDVMASQKRPSQRHGSKYLATASTMDHARHGFLPRHRDTGILDSIGRFFGGDRGAPKRGSGKDSHHPARTAHYGSLPQKSHGRTQDENPVVHFFKNIVTPRTPPPSQGKGRGLSLSRFSWGAEGQRPGFGYGGRASDYKSAHKGFKGVDAQGTLSKIFKLGGRDSRSGSPMARR
On to B1, for which the “mIL-2 mRNA Level” value runs as follows: under setting [2], 1.0 fold change vs control; under setting [3], 0.3 fold change vs control; under setting [4], 0.6 fold change vs control; under setting [11], 0.9 fold change vs control; under setting [6], 1.5 fold change vs control; under setting [7], 0.5 fold change vs control. For the same molecule, the “mIL-2 mRNA Level” value by setting is: under setting [8], 0.3 fold change vs control; under setting [9], 0.4 fold change vs control; under setting [10], 0.5 fold change vs control.
